Among the data in ChEMBL document CHEMBL4483862, “Open-source discovery of chemical leads for next-generation chemoprotective antimalarials” (2018) are IC50 and IC90 values, retold here.

This test concerns Plasmodium berghei. Nature of the test: Luciferase/luciferin-expressing antifolate-resistant parasites were used to infect a culture of HepG2 cells that were pre-incubated with compounds. Infected hepatocytes emit light due to the luciferase reaction. Assay results are presented as the percent inhibition of light emission compared to control. […]. In kind it is functional. The following applies: sporozoite; for IC90: read-out: LUCIFERASE INFECTION ASSAY - IC90.

[1] abbreviates: read-out: LUCIFERASE INFECTION ASSAY - IC50.

The structures appear in SMILES notation.

By IC50 is commonly meant the concentration at which inhibition is half-maximal. Broadly, the IC90 is the concentration at which the effect reaches the 90% level. Take `Brc1ccc(-c2cc(-c3ccccc3)cc(-c3ccccc3)n2)cc1`: the IC90 is more than 8.54 µM. Moreover, the IC50 under setting [1] was more than 8.54 µM.

For `CC(C)c1nnc(SCC(=O)Nc2ccc([N+](=O)[O-])cc2)[nH]1`, the 90% effect concentration (IC90) was more than 10 µM. In addition, the IC50 under setting [1] was more than 10 µM.

Turning to `Cc1cc(C)n(-c2nc(-c3ccccc3)cc(N3CCCC3)n2)n1`, the IC90 worked out at 8.47 µM. Under “PBLUC_HILL_SLOPE 3.13, PBLUC_R_SQUARED 0.498, read-out: LUCIFERASE INFECTION ASSAY - IC50”, the concentration for half-maximal inhibition (IC50) came to 4.2 µM.

With `Cc1cccc(NC(=O)CNC(=O)c2ccc3c(c2)C(=O)N(C)C3=O)c1C`, the 90% effect concentration (IC90) is more than 10 µM. Further, under setting [1], the IC50 is more than 10 µM.

As for `COc1ccc(Nc2nccc3nc(-c4ccc(C)cc4)[nH]c23)cc1`, the IC90 was more than 10 µM. The IC50 (HEPG2TOX_HILL_SLOPE 7.88, HEPG2TOX_R_SQUARED 0.839, PBLUC_HILL_SLOPE 3.67, PBLUC_R_SQUARED 0.381, read-out: LUCIFERASE INFECTION ASSAY - IC50) was determined as 7.4 µM.

Turning to `Cc1nccn1Cc1cccc(CNS(=O)(=O)c2ccc3ccccc3c2)c1`, the IC90 was more than 10 µM. Further, under setting [1], the IC50 was more than 10 µM.

As to `O=C(Nc1ccc2c(c1)OCO2)c1cnc(N2CCN(Cc3ccc(Cl)cc3)C2=O)o1`, the IC90 is more than 10 µM. Also, the IC50 (PBLUC_HILL_SLOPE 1.65, PBLUC_R_SQUARED 0.722, read-out: LUCIFERASE INFECTION ASSAY - IC50) is 3.79 µM.

`Cc1cc(-c2ccccc2)nc(SCc2ccc(C#N)cc2)n1`: the concentration for an effect of 90% (IC90) is 5.95 µM. Further, where the note is “HEPG2TOX_HILL_SLOPE 7.96, HEPG2TOX_R_SQUARED 0.286, PBLUC_HILL_SLOPE 151, PBLUC_R_SQUARED 0.106, read-out: LUCIFERASE INFECTION ASSAY - IC50”, the IC50 was determined as 5.87 µM.

On to `CCC(=O)c1ccc(OCCCCn2cnc3ccccc32)cc1`, for which the IC90 was more than 10 µM. Under setting [1], the IC50 is more than 10 µM.

For `CCOC(=O)c1sc2ncn(-n3c(C)ccc3C)c(=O)c2c1C`, the 90% effect concentration (IC90) turned out to be 7.62 µM. Further, where the note is “PBLUC_HILL_SLOPE 2.28, PBLUC_R_SQUARED 0.71, read-out: LUCIFERASE INFECTION ASSAY - IC50”, the IC50 was found to be 2.9 µM.

As for `Cc1cc(C)c2c(C)c(C(=O)Nc3cc(S(=O)(=O)N4CCCCC4)ccc3N(C)C)sc2n1`, the IC90 is more than 10 µM. Also, the 50% inhibitory concentration (IC50) under setting [1] was determined as 6.67 µM.

For the molecule `CC(C)Sc1nnc(CSc2nc3ccccc3s2)n1C`, the concentration for an effect of 90% (IC90) came out at 3.94 µM. Moreover, for the setting “PBLUC_HILL_SLOPE 13.4, PBLUC_R_SQUARED 0.563, read-out: LUCIFERASE INFECTION ASSAY - IC50”, the IC50 was determined as 3.35 µM.

With `Cc1nc(NCCCc2n[nH]c(N)c2C#N)c2c(-c3ccccc3)csc2n1`, the IC90 was found to be 9.77 µM. In addition, under “PBLUC_HILL_SLOPE 3.76, PBLUC_R_SQUARED 0.424, read-out: LUCIFERASE INFECTION ASSAY - IC50”, the IC50 stood at 5.44 µM.

With `COc1cc(NCc2cc(Cl)cc(Cl)c2OC)ccc1NC(=O)C(C)C`, the IC90 was 8.02 µM. Further, the half-maximal inhibitory concentration (IC50) (HEPG2TOX_HILL_SLOPE 3.35, HEPG2TOX_R_SQUARED 0.946, PBLUC_HILL_SLOPE 1.13, PBLUC_R_SQUARED 0.756, read-out: LUCIFERASE INFECTION ASSAY - IC50) is 1.15 µM.

For `NC(=O)c1cccc(-c2cn3c(-c4cccc(OC(F)(F)F)c4)cnc3cn2)c1`, the IC90 came to 8.06 µM. Besides, under “PBLUC_HILL_SLOPE 12.4, PBLUC_R_SQUARED 0.473, read-out: LUCIFERASE INFECTION ASSAY - IC50”, the half-maximal inhibitory concentration (IC50) came to 6.74 µM.

Turning to `CC(C)c1cc(C(=O)Nc2nnc3ccccn23)c2cnn(C(C)C)c2n1`, the IC90 came to 4.31 µM. The IC50 (HEPG2TOX_HILL_SLOPE 0.96, HEPG2TOX_R_SQUARED 0.828, PBLUC_HILL_SLOPE 9.22, PBLUC_R_SQUARED 0.235, read-out: LUCIFERASE INFECTION ASSAY - IC50) is 3.4 µM.

On to `Cc1cc(C2=NN/C(=N/C3CC3)SC2)c(C)n1-c1cccc(S(=O)(=O)N2CCOCC2)c1`, for which the IC90 is more than 10 µM. Besides, the IC50 (PBLUC_HILL_SLOPE 11.7, PBLUC_R_SQUARED 0.69, read-out: LUCIFERASE INFECTION ASSAY - IC50) came to 9.28 µM.

For `NC(=O)c1ccc(-c2cc(-c3ccc(F)c(Cl)c3)cnc2N)cc1`, the IC90 was 4.41 µM. For the same molecule, the concentration for half-maximal inhibition (IC50) (PBLUC_HILL_SLOPE 12.5, PBLUC_R_SQUARED 0.242, read-out: LUCIFERASE INFECTION ASSAY - IC50) was 3.7 µM.

For `Cc1csc(=O)n1CC(=O)Nc1ccccc1C(=O)NCc1ccco1`, the IC90 is more than 10 µM. In addition, under setting [1], the IC50 was more than 10 µM.

Consider `CN(C)C(=O)c1nnsc1S(=O)(=O)c1ccc(Cl)cc1`, for which the IC90 is more than 9.95 µM. Under setting [1], the half-inhibitory concentration (IC50) is 8.45 µM.

As to `Cc1cc(C(=O)C(C)OC(=O)c2ccc(S(=O)(=O)NCc3ccco3)cc2)c(C)n1-c1ccc(Cl)cc1` (stereo not drawn), the IC90 is more than 10 µM. For the same molecule, the half-maximal inhibitory concentration (IC50) (HEPG2TOX_HILL_SLOPE 0.938, HEPG2TOX_R_SQUARED 0.54, PBLUC_HILL_SLOPE 4.63, PBLUC_R_SQUARED 0.33, read-out: LUCIFERASE INFECTION ASSAY - IC50) turned out to be 7.49 µM.

Regarding `CCc1cccc2c(/C=C(/C(=O)NCc3ccccn3)c3nc4ccccc4[nH]3)c[nH]c12`, the IC90 was more than 10 µM. Further, where the note is “PBLUC_HILL_SLOPE 0.583, PBLUC_R_SQUARED 0.274, read-out: LUCIFERASE INFECTION ASSAY - IC50”, the 50% inhibitory concentration (IC50) was more than 10 µM.

Consider `CNc1nc2cnc(Nc3ccccc3Cl)cc2n1CC1CC1`, for which the IC90 is more than 10 µM. Also, the half-inhibitory concentration (IC50) under setting [1] was more than 10 µM.

Consider `Cc1cc(NC(=O)COC(=O)CCCOc2ccc(Cl)cc2C)no1`, for which the concentration for an effect of 90% (IC90) is more than 10 µM. Moreover, the IC50 (FFLUC_HILL_SLOPE 1.69, FFLUC_R_SQUARED 0.223, read-out: LUCIFERASE INFECTION ASSAY - IC50) is more than 10 µM.

Regarding `CN(C)c1nn(C(=O)Nc2cccc(C(F)(F)F)c2)cc1-c1ccccc1`, the IC90 amounted to 8.43 µM. The concentration for half-maximal inhibition (IC50) (PBLUC_HILL_SLOPE 19.3, PBLUC_R_SQUARED 0.463, read-out: LUCIFERASE INFECTION ASSAY - IC50) is 7.52 µM.

Consider `ONC(=Nc1cccc(C(F)(F)F)c1)c1ccccc1`, for which the IC90 is more than 11.8 µM. Moreover, the 50% inhibitory concentration (IC50) under setting [1] is more than 11.8 µM.

For `NC(=O)c1nc[nH]c1NC(=O)Cc1ccc(-c2ccccc2)cc1`, the concentration for an effect of 90% (IC90) is more than 10 µM. Moreover, the concentration for half-maximal inhibition (IC50) (PBLUC_HILL_SLOPE 1, PBLUC_R_SQUARED 0.17, read-out: LUCIFERASE INFECTION ASSAY - IC50) is more than 10 µM.

In the case of `CCN(CC)CCNc1cc(-c2cccs2)nc2ccccc12`, the concentration for an effect of 90% (IC90) is more than 10.1 µM. Moreover, the IC50 (PBLUC_HILL_SLOPE 1.7, PBLUC_R_SQUARED 0.474, read-out: LUCIFERASE INFECTION ASSAY - IC50) worked out at 3.96 µM.

`C=CCN(CC=C)C(CNc1ccc2nnc(C(F)(F)F)n2n1)C(C)C` (stereo not drawn): the 90% effect concentration (IC90) is more than 10 µM. In addition, for the setting “PBLUC_HILL_SLOPE 8.1, PBLUC_R_SQUARED 0.171, read-out: LUCIFERASE INFECTION ASSAY - IC50”, the IC50 stood at 8.34 µM.

Consider `Cc1ccsc1/C=N/Nc1ccc([N+](=O)[O-])cc1S(=O)(=O)Nc1ccc(Cl)cc1`, for which the IC90 was 3.77 µM. Besides, the IC50 (HEPG2TOX_HILL_SLOPE 2.24, HEPG2TOX_R_SQUARED 0.991, PBLUC_HILL_SLOPE 12.9, PBLUC_R_SQUARED 0.191, read-out: LUCIFERASE INFECTION ASSAY - IC50) amounted to 3.18 µM.

Consider `CO/N=C1\CCCc2c(C(=O)N/N=C/c3ccc(Cl)cc3)sc(SC)c21`, for which the concentration for an effect of 90% (IC90) was 1.51 µM. Besides, the IC50 (HEPG2TOX_HILL_SLOPE 0.585, HEPG2TOX_R_SQUARED 0.788, PBLUC_HILL_SLOPE 2.34, PBLUC_R_SQUARED 0.687, read-out: LUCIFERASE INFECTION ASSAY - IC50) was 0.59 µM.

Consider `N=C(NOC(=O)Nc1ccc(OC(F)(F)F)cc1)c1cnccn1`, for which the IC90 was more than 9.67 µM. Moreover, the concentration for half-maximal inhibition (IC50) under setting [1] was more than 9.67 µM.

With `CS(=O)(=O)c1ccc(Oc2ccc(-n3ccnc3)cc2)c([N+](=O)[O-])c1`, the IC90 is more than 10 µM. Besides, under setting [1], the half-inhibitory concentration (IC50) was more than 10 µM.

In the case of `Cc1ccc2nc(NC(=O)c3ccc(Cl)cc3)c(C(=O)NC3CCCCC3)n2c1`, the IC90 was 6.42 µM. Also, the 50% inhibitory concentration (IC50) (PBLUC_HILL_SLOPE 3.64, PBLUC_R_SQUARED 0.503, read-out: LUCIFERASE INFECTION ASSAY - IC50) stood at 3.51 µM.

As for `Cc1ccc(C23CC4CC(CC(C(=O)N5CCN(CCc6ccccc6)CC5)(C4)C2)C3)cc1`, the IC90 was more than 10 µM. Further, the IC50 under setting [1] is more than 10 µM.

As to `COc1cc(OC)c(C(=O)NC(C)C23CC4CC(CC(C4)C2)C3)cc1OC` (stereo not drawn), the IC90 was determined as 9.64 µM. The IC50 (PBLUC_HILL_SLOPE 2.98, PBLUC_R_SQUARED 0.335, read-out: LUCIFERASE INFECTION ASSAY - IC50) turned out to be 4.61 µM.

For the molecule `O=C(Nc1ccc(OC(F)(F)F)cc1)c1ccc2c(c1)no[n+]2[O-]`, the IC90 worked out at 7.89 µM. For the same molecule, where the note is “HEPG2TOX_HILL_SLOPE 13, HEPG2TOX_R_SQUARED 0.448, PBLUC_HILL_SLOPE 2.82, PBLUC_R_SQUARED 0.324, read-out: LUCIFERASE INFECTION ASSAY - IC50”, the IC50 stood at 3.62 µM.

Consider `CCc1nn2c(=O)cc(CSc3ccc(C)cc3)[nH]c2c1-c1ccc(F)cc1`, for which the IC90 turned out to be 2.98 µM. The concentration for half-maximal inhibition (IC50) (FFLUC_HILL_SLOPE 2.56, FFLUC_R_SQUARED 0.75, PBLUC_HILL_SLOPE 10.5, PBLUC_R_SQUARED 0.512, read-out: LUCIFERASE INFECTION ASSAY - IC50) came out at 2.42 µM.

For `COC(=O)c1ccc2[nH]c3c(c2c1)CN(c1ncnc2ccccc12)CC3`, the IC90 is 9.79 µM. Further, the 50% inhibitory concentration (IC50) (HEPG2TOX_HILL_SLOPE 2.18, 2.21, HEPG2TOX_R_SQUARED 0.310, 0.448, PBLUC_HILL_SLOPE 1.05, 1.29, PBLUC_R_SQUARED 0.612, 0.824, read-out: LUCIFERASE INFECTION ASSAY - IC50) was 1.63 µM.
